According to ChEMBL document CHEMBL5380795, “Design, Synthesis, and Bioactivity Investigation of Cyclic Lipopeptide Antibiotics Containing Eight to Nine Amino Acids” (J Med Chem, 2023):
In brackets after ≈: the same amount, converted by molar mass.

Legend:
Pseudomonas aeruginosa [1] = assay: Antibacterial activity against carbapenem resistant Pseudomonas aeruginosa clinical isolate 19-3 assessed as inhibition of bacterial growth incubated for 18 to 24 hrs by broth microdilution method; format: functional; settings: time 18-24 hrs
[2] = test system: Staphylococcus epidermidis; assay: Antibacterial activity against methicillin resistant Staphylococcus epidermidis clinical isolate 19-5 assessed as inhibition of bacterial growth incubated for 18 to 24 hrs by broth microdilution method; format: functional; settings: time 18-24 hrs
Acinetobacter baumannii [3] = assay: Antibacterial activity against carbapenem resistant Acinetobacter baumannii clinical isolate 19-8 assessed as inhibition of bacterial growth incubated for 18 to 24 hrs by broth microdilution method; format: functional; settings: time 18-24 hrs
Acinetobacter baumannii [4] = assay: Antibacterial activity against oxacillinase-27 producing Acinetobacter baumannii NCTC 13304 assessed as inhibition of bacterial growth incubated for 18 to 24 hrs by broth microdilution method; format: functional; settings: time 18-24 hrs
Pseudomonas aeruginosa [5] = assay: Antibacterial activity against Pseudomonas aeruginosa clinical isolate 19-1 assessed as inhibition of bacterial growth incubated for 18 to 24 hrs by broth microdilution method; format: functional; settings: time 18-24 hrs
Pseudomonas aeruginosa [6] = assay: Antibacterial activity against Pseudomonas aeruginosa ATCC 27853 assessed as inhibition of bacterial growth incubated for 18 to 24 hrs by broth microdilution method; format: functional; settings: time 18-24 hrs
Klebsiella pneumoniae [7] = assay: Antibacterial activity against KPC producing Klebsiella pneumoniae ATCC BAA-1705 assessed as inhibition of bacterial growth incubated for 18 to 24 hrs by broth microdilution method; format: functional; settings: time 18-24 hrs
Klebsiella pneumoniae [8] = assay: Antibacterial activity against carbapenem resistant Klebsiella pneumoniae clinical isolate 19-15 assessed as inhibition of bacterial growth incubated for 18 to 24 hrs by broth microdilution method; format: functional; settings: time 18-24 hrs
Escherichia coli [9] = assay: Antibacterial activity against Escherichia coli ATCC BAA-2523 assessed as inhibition of bacterial growth incubated for 18 to 24 hrs by broth microdilution method; format: functional; settings: time 18-24 hrs
Pseudomonas aeruginosa [10] = assay: Antibacterial activity against carbapenem resistant Pseudomonas aeruginosa clinical isolate 17-1 assessed as inhibition of bacterial growth incubated for 18 to 24 hrs by broth microdilution method; format: functional; settings: time 18-24 hrs
Escherichia coli [11] = assay: Antibacterial activity against Escherichia coli clinical isolate 19-2 assessed as inhibition of bacterial growth incubated for 18 to 24 hrs by broth microdilution method; format: functional; settings: time 18-24 hrs
[12] = Selectivity index, ratio of IC50 for cytotoxicity against human HK-2 cells to MIC for antibacterial activity against Escherichia coli ATCC BAA-2523; format: toxicity, cell-based
Staphylococcus aureus [13] = assay: Antibacterial activity against Staphylococcus aureus ATCC 29213 assessed as inhibition of bacterial growth incubated for 18 to 24 hrs by broth microdilution method; format: functional; settings: time 18-24 hrs
[14] = test system: Staphylococcus epidermidis; assay: Antibacterial activity against methicillin resistant Staphylococcus epidermidis clinical isolate 19-6 assessed as inhibition of bacterial growth incubated for 18 to 24 hrs by broth microdilution method; format: functional; settings: time 18-24 hrs
Escherichia coli [15] = assay: Antibacterial activity against KPC producing Escherichia coli ATCC BAA-2340 assessed as inhibition of bacterial growth incubated for 18 to 24 hrs by broth microdilution method; format: functional; settings: time 18-24 hrs
Escherichia coli [16] = assay: Antibacterial activity against Escherichia coli NCTC 13353 assessed as inhibition of bacterial growth incubated for 18 to 24 hrs by broth microdilution method; format: functional; settings: time 18-24 hrs
[17] = Cytotoxicity against human HK-2 cells assessed as inhibition of cell growth incubated for 72 hrs by CCK-8 assay; format: toxicity, cell-based
Staphylococcus aureus [18] = assay: Antibacterial activity against methicillin resistant Staphylococcus aureus ATCC 33591 assessed as inhibition of bacterial growth incubated for 18 to 24 hrs by broth microdilution method; format: functional; settings: time 18-24 hrs
Klebsiella pneumoniae [19] = assay: Antibacterial activity against carbapenem resistant Klebsiella pneumoniae clinical isolate 19-17 assessed as inhibition of bacterial growth incubated for 18 to 24 hrs by broth microdilution method; format: functional; settings: time 18-24 hrs

Row | Structure (SMILES) | MIC (Pseudomonas aeruginosa [1]) | MIC [2] | MIC (Acinetobacter baumannii [3]) | MIC (Acinetobacter baumannii [4]) | MIC (Pseudomonas aeruginosa [5]) | MIC (Pseudomonas aeruginosa [6]) | MIC (Klebsiella pneumoniae [7]) | MIC (Klebsiella pneumoniae [8]) | MIC (Escherichia coli [9]) | MIC (Pseudomonas aeruginosa [10]) | MIC (Escherichia coli [11]) | selectivity ratio [12] | MIC (Staphylococcus aureus [13]) | MIC [14] | MIC (Escherichia coli [15]) | MIC (Escherichia coli [16]) | IC50 at 72 h [17] | MIC (Staphylococcus aureus [18]) | MIC (Klebsiella pneumoniae [19])
1 | CCCCCCC[C@H](O)CC(=O)N[C@H](CCN)C(=O)N[C@H]1CCNC(=O)[C@H](CC(C)C)NC(=O)[C@H](CCN)NC(=O)[C@H](CCN)NC(=O)[C@H](CC(C)C)NC(=O)[C@@H](CC(C)C)NC(=O)[C@H](CCN)NC1=O | 4 mg/L (≈ 3.96 µM) | 2 mg/L (≈ 1.98 µM) | 2 mg/L (≈ 1.98 µM) | 1 mg/L (≈ 0.99 µM) | 2 mg/L (≈ 1.98 µM) | 1 mg/L (≈ 0.99 µM) | 4 mg/L (≈ 3.96 µM) | 8 mg/L (≈ 7.92 µM) | 4 mg/L (≈ 3.96 µM) | 2 mg/L (≈ 1.98 µM) | 8 mg/L (≈ 7.92 µM) | 19.4 | > 64 mg/L | 16 mg/L (≈ 15.8 µM) | 2 mg/L (≈ 1.98 µM) | 8 mg/L (≈ 7.92 µM) | 77.6 mg/L (≈ 76.8 µM) | > 64 mg/L | 8 mg/L (≈ 7.92 µM)
2 | CCCCCCCCCC(=O)N[C@H](CCN)C(=O)N[C@H]1CCNC(=O)[C@H](CC(C)C)NC(=O)[C@H](CCN)NC(=O)[C@H](CCN)NC(=O)[C@H](CC(C)C)NC(=O)[C@@H](CC(C)C)NC(=O)[C@H](CCN)NC1=O | 8 mg/L (≈ 8.05 µM) | 2 mg/L (≈ 2.01 µM) | 4 mg/L (≈ 4.02 µM) | 8 mg/L (≈ 8.05 µM) | 2 mg/L (≈ 2.01 µM) | 1 mg/L (≈ 1.01 µM) | 2 mg/L (≈ 2.01 µM) | 8 mg/L (≈ 8.05 µM) | 16 mg/L (≈ 16.1 µM) | 2 mg/L (≈ 2.01 µM) | 16 mg/L (≈ 16.1 µM) | 3.3 | 32 mg/L (≈ 32.2 µM) | 8 mg/L (≈ 8.05 µM) | 4 mg/L (≈ 4.02 µM) | 16 mg/L (≈ 16.1 µM) | 53.5 mg/L (≈ 53.8 µM) | 64 mg/L (≈ 64.4 µM) | 16 mg/L (≈ 16.1 µM)
3 | CCCCCCCCCC(=O)N[C@@H](C(=O)N[C@H]1CCNC(=O)[C@H]([C@@H](C)O)NC(=O)[C@H](CCN)NC(=O)[C@H](CCN)NC(=O)[C@H](CC(C)C)NC(=O)[C@@H](CC(C)C)NC(=O)[C@H](CCN)NC1=O)[C@H](C)O | 32 mg/L (≈ 32.5 µM) | 16 mg/L (≈ 16.3 µM) | > 64 mg/L | 64 mg/L (≈ 65.1 µM) | 16 mg/L (≈ 16.3 µM) | 8 mg/L (≈ 8.14 µM) | 32 mg/L (≈ 32.5 µM) | 64 mg/L (≈ 65.1 µM) | 64 mg/L (≈ 65.1 µM) | 32 mg/L (≈ 32.5 µM) | 32 mg/L (≈ 32.5 µM) | 3.8 | > 64 mg/L | 64 mg/L (≈ 65.1 µM) | 64 mg/L (≈ 65.1 µM) | 64 mg/L (≈ 65.1 µM) | 240 mg/L (≈ 244 µM) | > 64 mg/L | 64 mg/L (≈ 65.1 µM)
4 | CC[C@H](C)CCCCC(=O)N[C@H](CCN)C(=O)N[C@H]1CCNC(=O)[C@H](CC(C)C)NC(=O)[C@H](CCN)NC(=O)[C@H](CCN)NC(=O)[C@H](CC(C)C)NC(=O)[C@@H](CC(C)C)NC(=O)[C@H](CCN)NC1=O | 2 mg/L (≈ 2.04 µM) | 4 mg/L (≈ 4.08 µM) | 8 mg/L (≈ 8.16 µM) | 8 mg/L (≈ 8.16 µM) | 2 mg/L (≈ 2.04 µM) | 1 mg/L (≈ 1.02 µM) | 1 mg/L (≈ 1.02 µM) | 8 mg/L (≈ 8.16 µM) | 8 mg/L (≈ 8.16 µM) | 1 mg/L (≈ 1.02 µM) | 32 mg/L (≈ 32.6 µM) | 10.9 | > 64 mg/L | 16 mg/L (≈ 16.3 µM) | 1 mg/L (≈ 1.02 µM) | 16 mg/L (≈ 16.3 µM) | 86.9 mg/L (≈ 88.6 µM) | > 64 mg/L | 8 mg/L (≈ 8.16 µM)
5 | CCCCCCC[C@@H](O)CC(=O)N[C@H](CO)C(=O)N[C@H](CCN)C(=O)N[C@H]1CCNC(=O)[C@H](CC(C)C)NC(=O)[C@H](CCN)NC(=O)[C@H](CCN)NC(=O)[C@H](Cc2ccccc2)NC(=O)[C@@H](CC(C)C)NC(=O)[C@H](CCN)NC1=O | 2 mg/L (≈ 1.77 µM) | 2 mg/L (≈ 1.77 µM) | 16 mg/L (≈ 14.1 µM) | 8 mg/L (≈ 7.07 µM) | 8 mg/L (≈ 7.07 µM) | 2 mg/L (≈ 1.77 µM) | 2 mg/L (≈ 1.77 µM) | 4 mg/L (≈ 3.54 µM) | 4 mg/L (≈ 3.54 µM) | 2 mg/L (≈ 1.77 µM) | 16 mg/L (≈ 14.1 µM) | 13.9 | 64 mg/L (≈ 56.6 µM) | 8 mg/L (≈ 7.07 µM) | 4 mg/L (≈ 3.54 µM) | 16 mg/L (≈ 14.1 µM) | 55.4 mg/L (≈ 49 µM) | 64 mg/L (≈ 56.6 µM) | 8 mg/L (≈ 7.07 µM)
